Values of other authors as cited in US20150272935A1, “Use of a Factor Xa Inhibitor for Treating and Preventing Bleeding Events And Related Disorders in Patients Having Sensitivity to Vitamin K Antagonists Used As Anticoagulants” (priority 2014, published 2015).
Like-named read-outs stand apart in the source and are kept apart here.

Tests used:
[1] = rats
[2] = monkeys
CYP2C9*3 = CYP2C9*3 (Homo sapiens, UniProt P11712, I359L); conditions: CYP2C9*3 versus CYP2C9*1
CYP2C9*2 = CYP2C9*2 (Homo sapiens, UniProt P11712, R144C); conditions: CYP2C9*2 versus CYP2C9*1

Row | oral bioavailability [1] | oral bioavailability [2] | oral bioavailability (human subjects) | reduction of warfarin metabolism (CYP2C9*3) | reduction of warfarin metabolism (CYP2C9*2) | Compound | safety and tolerability (doses of up to 90 mg per day)
1 | orally bioavailable | orally bioavailable | orally bioavailable | – | – | CN1CCc2nc(C(=O)N[C@@H]3C[C@@H](C(=O)N(C)C)CC[C@@H]3NC(=O)C(=O)Nc3ccc(Cl)cn3)sc2C1.Cc1ccc(S(=O)(=O)O)cc1 [Edoxaban] | generally safe and well tolerated
2 | – | – | – | about 90% | about 30% | CC(=O)CC(c1ccccc1)c1c(O)c2ccccc2oc1=O (stereo not drawn) [Warfarin] | –
